Experimental findings from patent US20090291083A1, “BARB4 TARGET, ANTIBODY DESIGNATED BARB4, BARB4 RELATED ANTIBODIES, AND METHODS OF MAKING AND USING SAME” (PATRYS LIMITED, priority 2008, published 2009) are described below.

Common to all, as to assay: MTT cell proliferation assay (Table 2)
Common to all, as to assay type: cell-based, human
A general note: Tetrazolium dyes change colour on reduction, which living cells bring about.

The test system of assay [1] is H460. Here is the method: (§1) BARB4 was also evaluated for inhibition of proliferation of other cancer cell lines, including BxPC-3, COLO 205, H460, MDA-MB-231 and MIAPaCa-2 cells, as well as HT-29, HCT-116, BxPC-3, PANC-1, A549, PC-3 and HCT116 cells. In brief, various human cancer cell lines obtained from the American Type Culture Collection (ATCC) were established using standard in vitro culture methods and ATCC recommended media in 175 cm2 BD tissue culture treated flasks. In particular, MDAMB-231 cultures were incubated in a humidified 37° C., 100% air incubator, and BxPC-3, COLO 205, H460 and MIAPaCa-2 cultures were incubated in a humidified 37° C., 5% CO2, 95% air incubator. Cultures were sub-cultivated regularly to maintain log phase growth. All cell lines were brought up from cryopreservation using the original recommended ATCC media type and supplements. Cell line specific seeding densities were based on historical data from MIR Preclinical Services for growth over a 72 hr period.
(§2) On the day of IC50 plate seeding, the adherent cells were removed from the flasks for each cell line using trypsin EDTA, 1× (Cell Gro #25-053-CI). Trypsin was deactivated using complete media and the cells were pooled (each line done separately). The pooled cells in complete media were counted using trypan blue exclusion with a Neubauer Bright-Line® hemacytometer. The percent viability for each cell line was as follows:
(§3) Based on live cell counts, each suspension was then diluted in complete media (containing required supplements) to achieve the desired seeding density for each cell line. Once seeded, the cells were allowed to attach to the plates overnight and then treated with BA4 or cisplatin 24 hr post-seeding.
(§4) BARB4 was serially diluted 1:2 (2× final conc. in dilution reservoir=1600 μg/ml) in media to achieve a final 800 μg/ml starting concentration in the top dosage wells of the treatment plate by diluting 1:2 when transferred from the reservoir to the treatment plate. Antibody was added to columns 1 through 10 of the treatment plate. Column 11 was for cells+media only control and column 12 was for a media only blank. Cisplatin (positive control) was manufactured by Sigma (# M4394, lot 087K1349) and supplied as a fine, dark yellow powder, in an amber vial, stored at room temperature and housed in a covered box to prevent exposure to light. Cisplatin was previously dissolved in 0.9% saline to make a clear, colorless 4 mM stock solution, aliquoted and frozen at −20° C. Frozen aliquots were quickly thawed by holding the tubes in hand, placed on wet ice and diluted (2× conc. dilution reservoir) to achieve a final 1 mM starting concentration in the top dosage wells of the treatment plate (diluted 1:2 when transferred from the dilution reservoir to the treatment plate). Serial dilutions of 1:4 were made from wells 1 through 10 of the dilution reservoir prior to transfer to the treatment plate.
(§5) The BARB4 stock solution (10.5 mg/ml) was prepared by dilution in complete media according to the table below for a final starting treatment concentration of 800 μg/ml. The 4 mM stock solution of cisplatin in 0.9% saline was diluted in complete media for a final starting treatment concentration of 1 mM.
(§6) Cells were exposed to BARB4 or cisplatin for a 24 hr period. The plates were incubated overnight at 37° C. At 24 hr and 48 hr post-treatment, the MTT assay was performed as described below.
(§7) The anti-proliferative activity of BARB4 and cisplatin was evaluated using the MTT cell proliferation assay (ATCC catalog #30-1010K). The assay is based on the reduction of yellow tetrazolium MTT (3-(4,5-dimethylthiazolyl-2)-2,5-diphenyltetrazolium bromide) by metabolically active cells forming purple formazan crystals. […]

In assay [2] the test system is COLO 205. Here is the method: as §1, §2, §3, §4, §5, §6, §7
The test system of assay [3] is MDA-MB-231. As for the experimental part: as §1, §2, §3, §4, §5, §6, §7
The test system of assay [4] is BxPC-3. As for the experimental part:
as §1, §2, §3, §4, §5, §6, §7

Assay [5] deals with MIAPaCa-2. Here is the method:
as §1, §2, §3, §4, §5, §6, §7

Where [6] appears, read: MTT 24 hr post-treatment, read-out: IC50, Cisplatin (24 hr).
Setting [7] is: MTT 48 hr post-treatment, read-out: IC50, Cisplatin (48 hr).

The structures appear in SMILES notation. Where two headings read alike, the source gives them in different places.

By IC50 is commonly meant the concentration at which inhibition is half-maximal. Take `N.N.[Cl][Pt][Cl]` [Cisplatin, reference compound]: the IC50 in assay [1] (setting [6]) amounted to 63.3 µM; in assay [1] (setting [7]), 6.37 µM; in assay [2] (setting [6]), 58.5 µM; in assay [2] (setting [7]), 62.9 µM; in assay [3] (setting [6]), 97.5 µM; in assay [3] (setting [7]), 233 µM. Moreover, the IC50 in assay [4] (BxPC-3, MTT 24 hr post-treatment, read-out: IC50, Cisplatin (24 hr)) turned out to be 39.2 µM; in assay [4] (BxPC-3, MTT 48 hr post-treatment, read-out: IC50, Cisplatin (48 hr)), 9.41 µM; in assay [4] (BxPC-3 repeat, MTT 24 hr post-treatment, read-out: IC50, Cisplatin (24 hr)) it was 13.6 µM; in assay [4] (BxPC-3 repeat, MTT 48 hr post-treatment, read-out: IC50, Cisplatin (48 hr)), 5.65 µM; in assay [5] (setting [6]), 43.9 µM; in assay [5] (setting [7]), 29.8 µM.
